Measured values as given in patent US8252803B2 (Merck Sharp & Dohme Corp., priority 2007, dated 2012).

What follows are compounds tested against T1, γ-secretase, Aβ(1-42) production, SH-SY5Y neuroblastoma cells overexpressing SPA4CT (Homo sapiens, UniProt P49768) (assay: Cell-Based γ-Secretase Assay, Aβ(42) detection). Details: overnight incubation, read-out: IC50 values for Aβ(1-42) inhibition.
T1 construct: Human SH-SY5Y neuroblastoma cells overexpressing the direct γ-secretase substrate SPA4CT; endogenous in cells; host or cells: human SH-SY5Y neuroblastoma cells stably overexpressing the substrate SPA4CT, induced with sodium butyrate
Protocol: Cell-Based γ-Secretase Assay
Human SH-SY5Y neuroblastoma cells overexpressing the direct γ-secretase substrate SPA4CT were induced with sodium butyrate (10 mM) for 4 hours prior to plating. Cells were plated at 35,000 cells/well/100 μl in 96-well plates in phenol red-free MEM/10% FBS, 50 mM HEPES, 1% Glutamine and incubated for 2 hrs at 37° C., 5% CO2.
Compounds for testing were diluted into Me2SO to give a ten point dose-response curve. Typically 10 μl of these diluted compounds in Me2SO were further diluted into 182 μl dilution buffer (phenol red-free MEM/10% FBS, 50 mM HEPES, 1% Glutamine) and 10 μl of each dilution was added to the cells in 96-well plates (yielding a final Me2SO concentration of 0.5%). Appropriate vehicle and inhibitor controls were used to determine the window of the assay.
After incubation overnight at 37° C., 5% CO2, 25 μl and 50 μl media were transferred into a standard Meso avidin-coated 96-well plate for detection of Aβ(40) and Aβ(42) peptides, respectively. 25 μl Meso Assay buffer (PBS, 2% BSA, 0.2% Tween-20) was added to the Aβ(40) wells followed by the addition of 25 μl of the respective antibody premixes to the wells:
Aβ(42) premix: 1 μg/ml ruthenylated G2-11 antibody, 4 μg/ml biotinylated 4G8 antibody diluted in Origen buffer
(Biotinylated 4G8 antibody supplied by Signet Pathology Ltd; G2-10 and G2-11 antibodies supplied by Chemicon)
After overnight incubation of the assay plates on a shaker at 4° C., the Meso Scale Sector 6000 Imager was calibrated according to the manufacturer's instructions. After washing the plates 3 times with 150 μl of PBS per well, 150 μl Meso Scale Discovery read buffer was added to each well and the plates were read on the Sector 6000 Imager according to the manufacturer's instructions.
LD50 and IC50 values for inhibition of Aβ(40) and Aβ(42) were calculated by nonlinear regression fit analysis using the appropriate software (eg. Excel fit). The total signal and the background were defined by the corresponding Me2SO and inhibitor controls.

SMILES	IC50
CCOc1cc(C)c(Nc2nc(N3CCC(n4ccnn4)CC3)ncc2F)cc1C(C)C [Example 21, N-(4-ethoxy-5-isopropyl-2-methylphenyl)-5-fluoro-2-[4-(1H-1,2,3-triazol-1-yl)piperidin-1-yl]pyrimidin-4-amine]	0.5 to 1.5 µM
CCN(CC)c1ccc(Nc2ccnc(N3CCC(n4ccnn4)CC3)n2)c(C)c1 [Example 8, N4,N4-diethyl-2-methyl-N1-{2-[4-(1H-1,2,3-triazol-1-yl)piperidin-1-yl]pyrimidin-4-yl}benzene-1,4-diamine]	3 to 6 µM
CCOc1cc(C)c(Nc2ccnc(N3CCC(n4ccnc4)CC3)n2)cc1C(C)C [Example 11, N-(4-ethoxy-5-isopropyl-2-methylphenyl)-2-[4-(1H-1,2,3-imidazol-1-yl)piperidin-1-yl]pyrimidin-4-amine]	< 0.5 µM
Cc1ccc(C(C)(C)C)cc1Nc1ccnc(N2CCC(n3ccnn3)CC2)n1 [Example 15, N-(5-tert-butyl-2-methylphenyl)-2-[4-(1H-1,2,3-triazol-1-yl)piperidin-1-yl]pyrimidin-4-amine]	0.5 to 1.5 µM
CCOc1cc(C)c(Nc2cc(CO)nc(N3CCC(n4ccnc4)CC3)n2)cc1C(C)C [Example 25, {6-[(4-ethoxy-5-isopropyl-2-methylphenyl)amino]-2-[4-(1H-imidazol-1-yl)piperidin-1-yl]pyrimidin-4-yl}methanol]	< 0.5 µM
CCN(CC)c1ccc(Nc2ccnc(N3CCC(c4nnc(-c5ccccc5)o4)CC3)n2)c(C)c1 [Example 14, N4,N4-diethyl-2-methyl-N1-{2-[4-(5-phenyl-1,3,4-oxadiazol-2-yl)piperidin-1-yl]pyrimidin-4-yl}benzene-1,4-diamine]	1.5 to 3 µM
CCOc1cc(C)c(Nc2nc(N3CCC(n4ccnc4)CC3)ncc2Cl)cc1C(C)C [Example 20, 5-chloro-N-(4-ethoxy-5-isopropyl-2-methylphenyl)-2-[4-(1H-imidazol-1-yl)piperidin-1-yl]pyrimidin-4-amine]	1.5 to 3 µM
CCN(CC)c1ccc(Nc2ccnc(N3CCC4(CCCN4)CC3)n2)c(C)c1 [Example 4, N1-[2-(1,8-diazaspiro[4.5]dec-8-yl)pyrimidin-4-yl]-N4,N4-diethyl-2-methylbenzene-1,4-diamine]	3 to 6 µM

Other lines, results leading:

IC50	SMILES
3 to 6 µM	Cc1ccc(C(C)(C)C)cc1Nc1nc(N2CCC(n3ccnn3)CC2)ncc1F [Example 1, N-(5-tert-butyl-2-methylphenyl)-5-fluoro-2-[4-(1H-1,2,3-triazol-1-yl)piperidin-1-yl]pyrimidin-4-amine]
< 0.5 µM	CCOc1cc(C)c(Nc2cc(C(=O)OC)nc(N3CCC(n4ccnc4)CC3)n2)cc1C(C)C [Example 24]
0.5 to 1.5 µM	CCOc1cc(C)c(Nc2nc(N3CCC(n4ccnc4)CC3)ncc2F)cc1C(C)C [Example 22, N-(4-ethoxy-5-isopropyl-2-methylphenyl)-5-fluoro-2-[4-(1H-imidazol-1-yl)piperidin-1-yl]pyrimidin-4-amine]
3 to 6 µM	CCN(CC)c1ccc(Nc2ccnc(N3CCC(n4ccnc4)CC3)n2)c(C)c1 [Example 7, N4,N4-diethyl-N1-{2-[4-(1H-imidazol-1-yl)piperidin-1-yl]pyrimidin-4-yl}-2-methylbenzene-1,4-diamine]
0.5 to 1.5 µM	Cc1ccc(C(C)(C)C)cc1Nc1ccnc(N2CCC(n3ccnc3)CC2)n1 [Example 16, N-(5-tert-butyl-2-methylphenyl)-2-[4-(1H-imidazol-1-yl)piperidin-1-yl]pyrimidin-4-amine]
3 to 6 µM	Cc1ccc(C(C)(C)C)cc1Nc1nc(N2CCC(n3ccnc3)CC2)ncc1F [Example 17, N-(5-tert-butyl-2-methylphenyl)-5-fluoro-2-[4-(1H-imidazol-1-yl)piperidin-1-yl]pyrimidin-4-amine]
1.5 to 3 µM	CCOc1cc(C)c(Nc2nc(N3CCC(n4cc(C)nn4)CC3)ncc2Cl)cc1C(C)C [Example 23, 5-chloro-N-(4-ethoxy-5-isopropyl-2-methylphenyl)-2-[4-(4-methyl-1H-1,2,3-triazol-1-yl)piperidin-1-yl]pyrimidin-4-amine]
1.5 to 3 µM	CCOc1cc(C)c(Nc2nc(N3CCC(n4ccnn4)CC3)ncc2Cl)cc1C(C)C [Example 19, 5-chloro-N-(4-ethoxy-5-isopropyl-2-methylphenyl)-2-[4-(1H-1,2,3-triazol-1-yl)piperidin-1-yl]pyrimidin-4-amine]
3 to 6 µM	Cc1ccc(C(C)C)cc1Nc1ccnc(N2CCC(n3ccnn3)CC2)n1 [Example 12, N-(5-isopropyl-2-methylphenyl)-2-[4-(1H-1,2,3-triazol-1-yl)piperidin-1-yl]pyrimidin-4-amine]
0.5 to 1.5 µM	CCOc1cc(C)c(Nc2ccnc(N3CCC(n4ccnn4)CC3)n2)cc1C(C)C [Example 10, N-(4-ethoxy-5-isopropyl-2-methylphenyl)-2-[4-(1H-1,2,3-triazol-1-yl)piperidin-1-yl]pyrimidin-4-amine]
3 to 6 µM	Cc1ccc(C(C)(C)C)cc1Nc1cc(S(C)(=O)=O)nc(N2CCC(n3ccnc3)CC2)n1 [Example 18, N-(5-tert-butyl-2-methylphenyl)-2-[4-(1H-imidazol-1-yl)piperidin-1-yl]-6-(methylsulfonyl)pyrimidin-4-amine]
